{
  "source": "PubChem BioAssay AID1259411",
  "about": "(Chemical Carcinogenesis Research Information System (CCRIS), 2018)",
  "test_system": "rodent carcinogenicity bioassays, tumor incidence",
  "experiment": "CCRIS carcinogenicity studies",
  "how_it_was_run": "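NCI-built, expert-reviewed records of carcinogenicity and related test outcomes (mutagenicity, tumor promotion/inhibition) compiled from published and report sources, historical span 1985-2011, not updated.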",
  "note": "Activity calls are given as the source filed them. No rule for the calls is given here.",
  "data": [
    {"smiles": "c1ccc2c(c1)ccc1cc3ccc4c(c3nc12)[C@H]1O[C@H]1CC4", "values": [
      {"measurement": "carcinogen call", "setting": "Species: MOUSE, Strain/Sex: CD-1/FEMALE, Route: INTRAPERITONEAL, Dose: 0, 28 NMOL (TOTAL DOSE) ADMINISTERED AS 1/7 OF DOSE WITHIN 24 HR AFTER BIRTH, 2/7 OF DOSE AT 8 D OLD, 4/7 OF DOSE AT 15, Tumor Site: Type of Lesion: LUNG: TUMOR", "result": "active; positive"},
      {"measurement": "carcinogen call", "setting": "Species: MOUSE, Strain/Sex: CD-1/MALE, Route: INTRAPERITONEAL, Dose: 0, 28 NMOL (TOTAL DOSE) ADMINISTERED AS 1/7 OF DOSE WITHIN 24 HR AFTER BIRTH, 2/7 OF DOSE AT 8 D OLD, 4/7 OF DOSE AT 15, Tumor Site: Type of Lesion: LIVER: TUMOR, LUNG: TUMOR", "result": "active; positive"}
    ]},
    {"smiles": "Cc1cc2ccccc2c2ccc3c(c12)C=C[C@@H](O)[C@@H]3O", "values": [
      {"measurement": "carcinogen call", "setting": "Species: MOUSE, Strain/Sex: ICR/FEMALE, Route: INTRAPERITONEAL, Dose: 8 NMOL/5 µL DMSO ON DAY 1, 16 NMOL/10 µL ON DAY 8, AND 32 NMOL/20 µL ON DAY 15 OF AGE (STUDY DURATION: 35 WK), Tumor Site: Type of Lesion: LUNG: TUMORS", "result": "active; positive"},
      {"measurement": "carcinogen call", "setting": "Species: MOUSE, Strain/Sex: ICR/MALE, Route: INTRAPERITONEAL, Dose: 8 NMOL/5 µL DMSO ON DAY 1, 16 NMOL/10 µL ON DAY 8, AND 32 NMOL/20 µL ON DAY 15 OF AGE (STUDY DURATION: 35 WK), Tumor Site: Type of Lesion: LUNG: TUMORS, LIVER: TUMORS", "result": "active; positive"}
    ]},
    {"smiles": "CCN(C)N=O", "values": [
      {"measurement": "carcinogen call", "setting": "Species: HAMSTER, Strain/Sex: SYRIAN/MALE, Route: GAVAGE, Dose: 0, 1.8 MG/KG 1/WK FOR 23-30 WK (TOTAL DOSE: 0; 0.53 MMOL) (STUDY DURATION: LIFETIME), Dose: 0, 1.8 MG/KG 1/WK FOR 23-30 WK (TOTAL DOSE: 0; 0.53 MMOL) (STUDY DURATION: LIFETIME), Tumor Site: Type of Lesion: LIVER: HEPATOCELLULAR CARCINOMA, HEPATOCELLULAR ADENOMA, CHOLANGIOCARCINOMA, CHOLANGIOMA, HEMANGIOSARCOMA, NASAL MUCOSA:", "result": "active; positive"},
      {"measurement": "carcinogen call", "setting": "Species: RAT, Strain/Sex: F344/FEMALE, Route: GAVAGE, Dose: 0, 4.6 MG/WK FOR A TOTAL DOSE OF 1.4 MMOL (STUDY DURATION: 40 WK), Tumor Site: Type of Lesion: LIVER: TUMOR, LUNG: TUMOR", "result": "active; positive"},
      {"measurement": "carcinogen call", "setting": "Species: RAT, Strain/Sex: F344/FEMALE, Route: INTRAVESICULAR, Dose: 0, 2.3 MG IN 0.2 ML ETHANOL: DEIONIZED WATER (1:3) 2/WK FOR 30 WK (TOTAL DOSE 1.6 MMOL) (STUDY DURATION: LIFESPAN), Tumor Site: Type of Lesion: LIVER: HEMANGIOSARCOMA, LUNG: TUMOR, KIDNEY: TUMOR, Tumor Site: Type of Lesion: LIVER: HEMANGIOSARCOMA, LUNG: TUMOR, KIDNEY: TUMOR", "result": "active; positive"},
      {"measurement": "carcinogen call", "setting": "Species: RAT, Strain/Sex: F344/MALE, Route: GAVAGE, Dose: 0, 4.6 MG/WK FOR A TOTAL DOSE OF 1.6 MMOL (STUDY DURATION: 60 WK), Tumor Site: Type of Lesion: LIVER: TUMOR, LUNG: TUMOR, NASAL MUCOSA: TUMOR, Tumor Site: Type of Lesion: LIVER: TUMOR, LUNG: TUMOR, NASAL MUCOSA: TUMOR", "result": "active; positive"}
    ]},
    {"smiles": "OC[C@H]1O[C@H](O[C@]2(CCl)O[C@H](CCl)[C@@H](O)[C@@H]2O)[C@H](O)[C@@H](O)[C@H]1Cl", "values": [
      {"measurement": "carcinogen call", "setting": "Species: MOUSE, Strain/Sex: CD-1/FEMALE, Route: ORAL, Dose: 0, 3000, 10,000, 30,000 PPM IN DIET FOR 104 WK (STUDY DURATION: 104 WK), Dose: 0, 3000, 10,000, 30,000 PPM IN DIET FOR 104 WK (STUDY DURATION: 104 WK)", "result": "inactive; negative"},
      {"measurement": "carcinogen call", "setting": "Species: MOUSE, Strain/Sex: CD-1/MALE, Route: ORAL, Dose: 0, 3000, 10,000, 30,000 PPM IN DIET FOR 104 WK (STUDY DURATION: 104 WK), Dose: 0, 3000, 10,000, 30,000 PPM IN DIET FOR 104 WK (STUDY DURATION: 104 WK)", "result": "inactive; negative"},
      {"measurement": "carcinogen call", "setting": "Species: RAT, Strain/Sex: SPRAGUE-DAWLEY/FEMALE, Route: ORAL, Dose: 0, 0.3, 1.0, 3.0% IN DIET FOR 104 WK (STUDY DURATION: 104 WK), Dose: 0, 0.3, 1.0, 3.0% IN DIET FOR 104 WK (STUDY DURATION: 104 WK)", "result": "inactive; negative"},
      {"measurement": "carcinogen call", "setting": "Species: RAT, Strain/Sex: SPRAGUE-DAWLEY/MALE, Route: ORAL, Dose: 0, 0.3, 1.0, 3.0% IN DIET FOR 104 WK (STUDY DURATION: 104 WK), Dose: 0, 0.3, 1.0, 3.0% IN DIET FOR 104 WK (STUDY DURATION: 104 WK)", "result": "inactive; negative"}
    ]},
    {"smiles": "Cl", "values": [
      {"measurement": "carcinogen call", "setting": "Species: RAT, Strain/Sex: F344/MALE, Route: ORAL, Dose: 0, 0.25, 1, 4% IN DIET FOR 2 YR (STUDY DURATION: 2 YR), Dose: 0, 0.25, 1, 4% IN DIET FOR 2 YR (STUDY DURATION: 2 YR)", "result": "inactive; negative"}
    ]},
    {"smiles": "CNC(=O)Oc1cccc(N=CN(C)C)c1", "values": [
      {"measurement": "carcinogen call", "setting": "Species: Mouse, Strain/Sex: Crl:CD-1(ICR) BR/Female (50/Group), Route: Oral, Dose: 0, 10, 50, 500 ppm of 95.7% formetanate HCl in diet for 104 wk, study duration 104 wk, Dose: 0, 10, 50, 500 ppm of 95.7% formetanate HCl in diet for 104 wk, study duration 104 wk", "result": "inactive; negative"},
      {"measurement": "carcinogen call", "setting": "Species: Mouse, Strain/Sex: Crl:CD-1(ICR) BR/Male (50/Group), Route: Oral, Dose: 0, 10, 50, 500 ppm of 95.7% formetanate HCl in diet for 104 wk, study duration 104 wk, Dose: 0, 10, 50, 500 ppm of 95.7% formetanate HCl in diet for 104 wk, study duration 104 wk", "result": "inactive; negative"},
      {"measurement": "carcinogen call", "setting": "Species: Rat, Strain/Sex: Crl:COBS CD(SD)BR/Female (50/Group), Route: Oral, Dose: 0, 10, 50, 250 ppm of 95.1-96% formetanate HCl in diet for 104 wk, study duration 104 wk, Dose: 0, 10, 50, 250 ppm of 95.1-96% formetanate HCl in diet for 104 wk, study duration 104 wk", "result": "inactive; negative"},
      {"measurement": "carcinogen call", "setting": "Species: Rat, Strain/Sex: Crl:COBS CD(SD)BR/Male (50/Group), Route: Oral, Dose: 0, 10, 50, 250 ppm of 95.1-96% formetanate HCl in diet for 104 wk, study duration 104 wk, Dose: 0, 10, 50, 250 ppm of 95.1-96% formetanate HCl in diet for 104 wk, study duration 104 wk", "result": "inactive; negative"}
    ]},
    {"smiles": "C=CCOCC1CO1", "note": "(stereo not given)", "values": [
      {"measurement": "carcinogen call", "setting": "Species: MOUSE, Strain/Sex: B6C3F1/FEMALE, Route: INHALATION, Dose: 0, 5, 10 PPM 6 HR/D 5 D/WK FOR 102 WK (STUDY DURATION: 105 WK), Dose: 0, 5, 10 PPM 6 HR/D 5 D/WK FOR 102 WK (STUDY DURATION: 105 WK), Tumor Site: Type of Lesion: NOSE (RESPIRATORY EPITHELIUM): ADENOMA", "result": "equivocal"},
      {"measurement": "carcinogen call", "setting": "Species: MOUSE, Strain/Sex: B6C3F1/MALE, Route: INHALATION, Dose: 0, 5, 10 PPM 6 HR/D 5 D/WK FOR 102 WK (STUDY DURATION: 105 WK), Dose: 0, 5, 10 PPM 6 HR/D 5 D/WK FOR 102 WK (STUDY DURATION: 105 WK), Tumor Site: Type of Lesion: NOSE (RESPIRATORY EPITHELIUM): ADENOMA", "result": "active; positive"},
      {"measurement": "carcinogen call", "setting": "Species: RAT, Strain/Sex: OSBORNE-MENDEL/FEMALE, Route: INHALATION, Dose: 0, 5, 10 PPM 6 HR/D 5 D/WK FOR 103 WK (STUDY DURATION: 106 WK), Dose: 0, 5, 10 PPM 6 HR/D 5 D/WK FOR 103 WK (STUDY DURATION: 106 WK)", "result": "inactive; negative"},
      {"measurement": "carcinogen call", "setting": "Species: RAT, Strain/Sex: OSBORNE-MENDEL/MALE, Route: INHALATION, Dose: 0, 5, 10 PPM 6 HR/D 5 D/WK FOR 103 WK (STUDY DURATION: 106 WK), Dose: 0, 5, 10 PPM 6 HR/D 5 D/WK FOR 103 WK (STUDY DURATION: 106 WK), Tumor Site: Type of Lesion: NOSE (RESPIRATORY OR OLFACTORY EPITHELIUM): PAPILLARY ADENOMA, SQUAMOUS CELL CARCINOMA, POORLY DIFFERENTIATED ADENOCARCI", "result": "equivocal"}
    ]},
    {"smiles": "O=[N+]([O-])c1ccc2nc[nH]c2c1", "values": [
      {"measurement": "carcinogen call", "setting": "Species: MOUSE, Strain/Sex: B6C3F1/FEMALE, Route: ORAL, Dose: 0, 0.12, 0.24% OF DIET, Dose: 0, 0.12, 0.24% OF DIET, Tumor Site: Type of Lesion: LIVER: HEPATOCELLULAR CARCINOMA OR HEPATOCELLULAR ADENOMA", "result": "active; positive"},
      {"measurement": "carcinogen call", "setting": "Species: MOUSE, Strain/Sex: B6C3F1/MALE, Route: ORAL, Dose: 0, 0.12, 0.24% OF DIET, Dose: 0, 0.12, 0.24% OF DIET, Tumor Site: Type of Lesion: LIVER: HEPATOCELLULAR CARCINOMA OR HEPATOCELLULAR ADENOMA", "result": "active; positive"},
      {"measurement": "carcinogen call", "setting": "Species: RAT, Strain/Sex: F344/FEMALE, Route: ORAL, Dose: 0, 0.12, 0.5% OF DIET, Dose: 0, 0.12, 0.5% OF DIET", "result": "inactive; negative"},
      {"measurement": "carcinogen call", "setting": "Species: RAT, Strain/Sex: F344/MALE, Route: ORAL, Dose: 0, 0.12, 0.5% OF DIET, Dose: 0, 0.12, 0.5% OF DIET", "result": "inactive; negative"}
    ]}
  ]
}
